From patent US20250144094A1 (Erasca, Inc., priority 2021, published 2025)

What was measured:
[1] = biological target: T1, Recombinant human ULK1 (1-649) (Homo sapiens (Human), UniProt O75385); test: ULK1 ADP Glo kinase activity assay (MBP substrate); conditions: 25° C., 40 minutes, read-out: ULK1 biochemical IC50
Experimental: Recombinant human ULK1 (1-649) protein expressed in Sf9 insect cells was obtained from SignalChem (Vancouver, BC), catalog #U01-11G. Active kinase was purified via N-terminal GST tag to >85% purity.
ADP GLO Kinase Assay Reagents were obtained from Promega Corp (Madison, WI), catalog #V9104.
MBP (myelin basic protein) substrate, bovine, purified, was obtained from Sigma (St. Louis, MO), catalog #M1891.
ULK1 inhibitor potency was determined using the luminescent ADP Glo Kinase Assay (Promega), a universal ADP detection system that measures kinase activity by quantifying the amount of ADP produced during a kinase reaction. ULK1 kinase reactions are performed in a standard 96-well microplate (20 uL reaction volume) at 25° C. for 40 minutes in the presence or absence of the test compound (12-point dilution series starting at 10 uM). Addition of MBP substrate and ATP initiates the kinase reaction.
The standard ADP Glo assay is performed in two steps. In step one, following the kinase reaction, an equal volume of ADP-Glo™ Reagent (20 uL) is added to terminate the kinase reaction and deplete the remaining ATP. In the second step, the Kinase Detection Reagent (10 uL) is added to simultaneously convert ADP to ATP and allow the newly synthesized ATP to be measured using a luciferase/luciferin reaction. Step two of the ADP Glo assay is performed in a white 384-well plate (20 uL final volume). Thirty minutes after the addition of the Detection reagent, light generated from the luciferase reaction is measured (1 second exposure) using a microplate compatible luminometer (CLARIOstar, BMG Labtech).
Inhibition of ULK1 kinase activity is determined for each test compound by comparison to DMSO only control wells. Inhibitor IC50 was calculated by plotting the change in luminescence after 30 minutes (response) versus inhibitor concentration (in log molar) then applying the four-parameter variable slope curve fit (GraphPad Prism). Inhibition of ULK1 in biochemical assay is found in Table 3.

[2] = biological target: T1, Recombinant human ULK1 (1-649); test: ULK1 ADP Glo kinase activity assay, new method (ULKtide peptide substrate); conditions: 25° C., 40 minutes, read-out: ULK1 biochemical IC50
Summary of the method: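 GST-tagged human ULK1 (1-649) from Sf9 cells was reacted with ULKtide peptide and ATP for 40 min at 25 °C across 12-point compound dilutions from 10 μM. ADP formed was quantified by ADP-Glo luminescence; IC50 came from four-parameter fits relative to DMSO controls.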

T1 sequence (O75385 1-649): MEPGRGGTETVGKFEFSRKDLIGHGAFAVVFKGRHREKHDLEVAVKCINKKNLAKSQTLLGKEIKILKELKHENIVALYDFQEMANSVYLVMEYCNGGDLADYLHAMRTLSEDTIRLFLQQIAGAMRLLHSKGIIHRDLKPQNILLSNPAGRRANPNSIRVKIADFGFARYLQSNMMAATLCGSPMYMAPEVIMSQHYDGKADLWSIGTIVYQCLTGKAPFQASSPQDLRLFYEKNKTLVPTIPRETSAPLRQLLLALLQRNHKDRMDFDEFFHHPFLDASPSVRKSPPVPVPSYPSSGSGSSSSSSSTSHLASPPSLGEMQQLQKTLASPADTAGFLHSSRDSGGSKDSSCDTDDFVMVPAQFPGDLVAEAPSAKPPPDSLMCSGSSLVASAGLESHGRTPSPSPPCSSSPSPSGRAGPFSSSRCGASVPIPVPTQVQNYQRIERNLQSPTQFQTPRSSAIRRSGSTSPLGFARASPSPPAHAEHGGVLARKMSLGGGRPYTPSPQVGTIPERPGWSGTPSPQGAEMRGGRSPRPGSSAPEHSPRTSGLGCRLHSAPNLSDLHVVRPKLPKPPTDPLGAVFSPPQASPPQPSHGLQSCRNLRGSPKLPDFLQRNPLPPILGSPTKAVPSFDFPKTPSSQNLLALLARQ

SMILES | IC50 [1] [nM] | IC50 [2] [nM]
FC(F)(F)c1cnc(Nc2cc3c(cc2Cl)CNCC3)nc1-c1cc(-c2ncco2)cs1 [Example 18, 7-Chloro-N-(4-(4-(oxazol-2-yl)thiophen-2-yl)-5-(trifluoromethyl)pyrimidin-2-yl)-1,2,3,4-tetrahydroisoquinolin-6-amine] | 10 to 50 | –
CS(=O)(=O)c1cc(-c2nc(Nc3cc4c(cc3Cl)CNCC4)ncc2C(F)(F)F)sc1CN1CCOCC1 [Example 62, 7-chloro-N-(4-(4-(methylsulfonyl)-5-(morpholinomethyl)thiophen-2-yl)-5-(trifluoromethyl)pyrimidin-2-yl)-1,2,3,4-tetrahydroisoquinolin-6-amine] | 10 to 50 | –
CP(C)(=O)c1csc(-c2nc(Nc3cc4c(cc3Cl)CNCC4)ncc2C(F)(F)F)c1 [Example 38, (5-(2-((7-Chloro-1,2,3,4-tetrahydroisoquinolin-6-yl)amino)-5-(trifluoromethyl)pyrimidin-4-yl)thiophen-3-yl)dimethylphosphine oxide] | 10 to 50 | –
CN1CCc2cc(Nc3ncc(C(F)(F)F)c(-c4cc5c(s4)C(=O)NCCS5(=O)=O)n3)c(Cl)cc2C1 [Example 86, 7-(2-((7-chloro-2-methyl-1,2,3,4-tetrahydroisoquinolin-6-yl)amino)-5 (trifluoromethyl)pyrimidin-4-yl)-3,4-dihydrothieno[2,3-f][1,4]thiazepin-5(2H)-one 1,1-dioxide] | ≤ 10 | –
CS(=O)(=O)c1csc(-c2nc(Nc3cc4c(cc3C3CC3)CNC4)ncc2C(F)(F)F)c1 [Example 131, 6-cyclopropyl-N-(4-(4-(methylsulfonyl)thiophen-2-yl)-5-(trifluoromethyl)pyrimidin-2-yl)isoindolin-5-amine] | ≤ 10 | –
CS(=O)(=O)c1cc(-c2nc(Nc3cc4c(cc3Cl)CNCC4)ncc2C(F)(F)F)sc1N1CCOCC1 [Example 83, 7-Chloro-N-[4-(4-methylsulfonyl-5-morpholino-2-thienyl)-5-(trifluoromethyl)pyrimidin-2-yl]-1,2,3,4-tetrahydroisoquinolin-6-amine] | ≤ 10 | –
CS(=O)(=O)c1cc(-c2nc(Nc3cc4c(cc3Cl)CNCC4)ncc2C(F)(F)F)sc1C1CCOCC1 [Example 97, 7-chloro-N-(4-(4-(methylsulfonyl)-5-(tetrahydro-2H-pyran-4-yl)thiophen-2-yl)-5-(trifluoromethyl)pyrimidin-2-yl)-1,2,3,4-tetrahydroisoquinolin-6-amine] | ≤ 10 | –
CCN1Cc2cc(F)c(Nc3ncc(C(F)(F)F)c(-c4cc5c(s4)C(=O)N(C)CCS5(=O)=O)n3)cc2C1 [Example 190, 7-(2-((2-ethyl-6-fluoroisoindolin-5-yl)amino)-5-(trifluoromethyl)pyrimidin-4-yl)-4-methyl-3,4-dihydrothieno[2,3-f][1,4]thiazepin-5(2H)-one 1,1-dioxide] | – | ≤ 5
O=C1c2sc(-c3nc(Nc4cnc(N5CC6CC(C5)N6)cc4C4CC4)ncc3C(F)(F)F)cc2S(=O)(=O)CCN1C1COC1 [Example 384, 7-(2-((6-(3,6-diazabicyclo[3.1.1]heptan-3-yl)-4-cyclopropylpyridin-3-yl)amino)-5-(trifluoromethyl)pyrimidin-4-yl)-4-(oxetan-3-yl)-3,4-dihydrothieno[2,3-f][1,4]thiazepin-5(2H)-one 1,1-dioxide] | – | ≤ 5
O=C1c2sc(-c3nc(Nc4ccc(N5C[C@H]6C[C@@H]5CN6)cc4C4CC4)ncc3C(F)(F)F)cc2S(=O)(=O)CCN1C1CC1 [Example 329, 7-(2-((4-((1R,4R)-2,5-diazabicyclo[2.2.1]heptan-2-yl)-2-cyclopropylphenyl)amino)-5-(trifluoromethyl)pyrimidin-4-yl)-4-cyclopropyl-3,4-dihydrothieno[2,3-f][1,4]thiazepin-5(2H)-one 1,1-dioxide] | – | ≤ 5
CN1C[C@H]2C[C@@H]1CN2c1ccc(Nc2ncc(C(F)(F)F)c(-c3cc4c(s3)C(=O)N(C3CC3)CCS4(=O)=O)n2)c(C2CC2)c1 [Example 330, 4-cyclopropyl-7-(2-((2-cyclopropyl-4-((1R,4R)-5-methyl-2,5-diazabicyclo[2.2.1]heptan-2-yl)phenyl)amino)-5-(trifluoromethyl)pyrimidin-4-yl)-3,4-dihydrothieno[2,3-f][1,4]thiazepin-5(2H)-one 1,1-dioxide] | – | ≤ 5
CN1CCS(=O)(=O)c2cc(-c3nc(Nc4cnc(N5CC6CC(C5)N6)cc4C4CC4)ncc3C(F)(F)F)sc2C1=O [Example 383, 7-(2-((6-(3,6-diazabicyclo[3.1.1]heptan-3-yl)-4-cyclopropylpyridin-3-yl)amino)-5-(trifluoromethyl)pyrimidin-4-yl)-4-methyl-3,4-dihydrothieno[2,3-f][1,4]thiazepin-5(2H)-one 1,1-dioxide] | – | ≤ 5
CCc1cc(N2CCN(CC)CC2)ccc1Nc1ncc(C(F)(F)F)c(-c2cc3c(s2)C(=O)N(C2CC2)CCS3(=O)=O)n1 [Example 271, 4-cyclopropyl-7-(2-((2-ethyl-4-(4-ethylpiperazin-1-yl)phenyl)amino)-5-(trifluoromethyl)pyrimidin-4-yl)-3,4-dihydrothieno[2,3-f][1,4]thiazepin-5(2H)-one 1,1-dioxide] | – | ≤ 5

The remaining lines, values ahead:

IC50 [1] [nM] | IC50 [2] [nM] | SMILES
≤ 10 | – | NC(=O)c1csc(-c2nc(Nc3cc4c(cc3C3CC3)CNCC4)ncc2C(F)(F)F)c1 [Example 10, 5-(2-((7-cyclopropyl-1,2,3,4-tetrahydroisoquinolin-6-yl)amino)-5-(trifluoromethyl)pyrimidin-4-yl)thiophene-3-carboxamide]
≤ 10 | – | O=C1NCCc2sc(-c3nc(Nc4cc5c(cc4F)CNCC5)ncc3C(F)(F)F)cc21 [Example 43, 2-(2-((7-fluoro-1,2,3,4-tetrahydroisoquinolin-6-yl)amino)-5-(trifluoromethyl)pyrimidin-4-yl)-6,7-dihydrothieno[3,2-c]pyridin-4(5H)-one]
≤ 10 | – | O=c1[nH]ccc2sc(-c3nc(Nc4cc5c(cc4Cl)CNCC5)ncc3C(F)(F)F)cc12 [Example 23, 2-(2-((7-Chloro-1,2,3,4-tetrahydroisoquinolin-6-yl)amino)-5-(trifluoromethyl)pyrimidin-4-yl)thieno[3,2-c]pyridin-4(5H)-one]
≤ 10 | – | CN1CCc2cc(Nc3ncc(C(F)(F)F)c(-c4cc(S(C)(=O)=O)cs4)n3)c(F)cc2C1 [Example 98, 7-fluoro-2-methyl-N-(4-(4-(methylsulfonyl)thiophen-2-yl)-5-(trifluoromethyl)pyrimidin-2-yl)-1,2,3,4-tetrahydroisoquinolin-6-amine]
≤ 10 | – | CSc1cc2c(cc1Nc1ncc(C(F)(F)F)c(-c3cc(S(C)(=O)=O)cs3)n1)CCN(C)C2 [Example 68, 2-methyl-N-(4-(4-(methylsulfonyl)thiophen-2-yl)-5-(trifluoromethyl)pyrimidin-2-yl)-7-(methylthio)-1,2,3,4-tetrahydroisoquinolin-6-amine]
≤ 10 | – | CN1CCc2cc(Nc3ncc(C(F)(F)F)c(-c4cc(S(C)(=O)=O)cs4)n3)c(C3CC3)cc2C1 [Example 115, 7-cyclopropyl-2-methyl-N-[4-(4-methylsulfonyl-2-thienyl)-5-(trifluoromethyl)pyrimidin-2-yl]-3,4-dihydro-1H-isoquinolin-6-amine]
≤ 10 | – | CN1CCc2cc(Nc3ncc(C(F)(F)F)c(-c4cc5c(s4)CNCCS5(=O)=O)n3)c(Cl)cc2C1 [Example 69, 7-(2-((7-chloro-2-methyl-1,2,3,4-tetrahydroisoquinolin-6-yl)amino)-5-(trifluoromethyl)pyrimidin-4-yl)-2,3,4,5-tetrahydrothieno[2,3-f][1,4]thiazepine 1,1-dioxide]
≤ 10 | – | CN1CCN(c2ccc(Nc3ncc(C(F)(F)F)c(-c4cc5c(s4)CCNC5=O)n3)c(C3CC3)c2)CC1 [Example 36, 2-(2-((2-Cyclopropyl-4-(4-methylpiperazin-1-yl)phenyl)amino)-5-(trifluoromethyl)pyrimidin-4-yl)-6,7-dihydrothieno[3,2-c]pyridin-4(5H)-one]
≤ 10 | – | CCS(=O)(=O)c1csc(-c2nc(Nc3cc4c(cc3Cl)CNCC4)ncc2C(F)(F)F)c1 [Example 51, 7-chloro-N-(4-(4-(ethylsulfonyl)thiophen-2-yl)-5-(trifluoromethyl)pyrimidin-2-yl)-1,2,3,4-tetrahydroisoquinolin-6-amine]
≤ 10 | – | CN1CCc2cc(F)c(Nc3ncc(C(F)(F)F)c(-c4cc(S(C)(=O)=O)cs4)n3)cc2C1 [Example 111, 6-fluoro-2-methyl-N-[4-(4-methylsulfonyl-2-thienyl)-5-(trifluoromethyl)pyrimidin-2-yl]-3,4-dihydro-1H-isoquinolin-7-amine]
≤ 10 | – | Cc1cc2c(cc1Nc1ncc(C(F)(F)F)c(-c3cc(S(C)(=O)=O)cs3)n1)CN(C)C2 [Example 92, 2,6-dimethyl-N-(4-(4-(methylsulfonyl)thiophen-2-yl)-5-(trifluoromethyl)pyrimidin-2-yl)isoindolin-5-amine]
